Laboratory results: US11479770B2, “Use of p38 inhibitors to reduce expression of DUX4” (Fulcrum Therapeutics, Inc., priority 2017, dated 2022)

How the values were obtained:
[1] = system: MBD3L2 mRNA (DUX4 downstream gene); experiment: MBD3L2 mRNA expression (qPCR) in FSHD myotubes; assay type: cell-based, human; details: 1 μM
Description: On day 0, the media was changed to differentiation media. Plates were removed from the incubator and the growth medium was aspirated, plates were washed once with PBS, 100 μL, for 96-wells and 1 mL for a 6-well plate, 100 μL, or 2 mL of differentiation medium was added per well, 96- or 6-well respectively. Antisense oligonucleotides or drug were added at the desired concentration, and the plates were put back in the incubator and incubated for 3-4 days.
Cells were removed from the incubator and media aspirated. Cells were quickly lysed following one of the following protocols: for lysis in 96-well plates, direct lysis and one-step RT-Preamp qPCR was performed according to the protocol described below. For each 96-well, a mix containing: 19.5 μL Roche Realtime Ready lysis buffer, 0.25 μL RNAse inhibitor, 0.25 μL DNAseI (from Thermo not the included one in the kit) was prepared. 20 μL of the mix was added to each well, mixed 5 times, and incubated 5 minutes at RT or alternatively shaken vigorously for 15 minutes. Lysis was observed under the microscope. Samples were frozen −80° C. at least for 15 minutes.
1-step RT-Preamplification was used for detection of DUX4 downstream genes, i.e., MBD3L2, ZSCAN4, LEUTX, TRIM43, KHDC1L, and POL2RA-VIC was used as endogenous control. Per 10 μL reaction, the reaction mix included: 2.25 μL of RNA (1:10 dilution lysate), 5 μL of Taqman Pre-Amp Master Mix (2×), 0.25 μL of RT enzyme mix (40×), 2.5 μL of Taqman probe set (0.2×)*. * For pooling the TaqMan Assays, equal volumes of each 20× TaqMan® Gene Expression Assay were used, and up to 100 assays were combined. For example, to pool 50 TaqMan assays, 10 μL of each assay were combined in a microcentrifuge tube. The pooled TaqMan assays were diluted using 1× TE buffer so that each assay was at a final concentration of 0.2×. For the above example, 500 μL of 1× TE buffer was added to the pooled TaqMan assays for a total final volume of 1 mL. The QuantStudio7 protocol was used at 48° C. 15 min, 95° C. 10 min, 10 cycles: 95° C. 15 sec, 60° C. 4 min, and 4° C. infinite Samples were then diluted to 50 μL and continued with the qPCR step. Per 10 μL reaction, the reaction mix included: 2 μL of Preamp dilution, 5 μL of Fast Advanced Taqman Master Mix (2×), 0.5 μL of Taqman probe set (20×), and 2.5 μL of H2O. When multiplexing, the volume was adjusted to 10 μL total. The following program was run on the QuantStudio7: 50° C. for 2 min, 95° C. for 30 sec, 40×, 95° C. for 5 sec, 60° C. for 30 sec, and plates were read as per the manufacturers specifications (Thermo).
Wild type myotubes and mature patient-derived FSHD myotubes that express DUX4 protein were treated with DMSO vehicle control or multiple concentrations of various p38α/β inhibitors with different ranges of isoform and kinome selectivity, including SB239063 (FIG. 4A), VX-702 (FIG. 4B), Pamapimod (FIG. 4C), and TAK-715 (FIG. 4D). After treatment, the control and treated cells were processed for realtime PCR quantification of MBD3L2 mRNA (DUX4 downstream gene) and myogenin (MYOG) mRNA (control) expression.

[2] = rat; oral; clinically relevant plasma exposures
Description: Male Sprague Dawley rats (6-8 weeks of age) were supplied by Hilltop Lab Animals, Inc. (USA). Following arrival at Wuxi AppTec, animals were assessed for their general health by a member of veterinary staff or other designated personnel. Animals were acclimated for at least 2 days (upon arrival at WuXi AppTec) before commencement of the study. Animals were individually housed during acclimation and throughout the study. The animal room environment was controlled according to facility operation (target conditions: temperature 20 to 26° C., relative humidity 30 to 70%, 12-hour cycle of lights on and off). Lights, temperature and relative humidity are constantly monitored by AmegaView Environmental Monitoring System. […] Water (reverse osmosis) was provided to the animals ad libitum. […] In study #FULTH-20171120 rats were fasted overnight prior to drug administration: rats were allowed free access to water at all times and were fed 4 hours post dosing. For study #FULTH-20171228 rats were allowed ad-libitum access to food and water throughout the study.
Dose volume was determined by measured body weight prior to dosing. […] Feeding condition: overnight fast, food return 4 hours after dosing.
Blood samples for PK: Approximately 100 μl of blood sample was obtained via jugular vein or tail vein at each pre-defined time point. […]

[3] = system: p38 system (phospho MK2 to total MK2 ratio); experiment: Rat PD: phospho MK2 to total MK2 ratio in trapezius muscle; assay type: in vivo
Description: Approximately 50 mg of muscle tissue was placed on dry ice. Muscle samples were cut, as needed to obtain the 50 mg weight using a clean razor blade per specimen. 50 mg of muscle tissue was placed into a pre-labeled TT1 Covaris bag (Covaris, MA, USA) and kept on dry ice. The TT1 Covaris bag was submerged in liquid nitrogen and the sample was cryofractured in the Covaris cryoPREP (Covaris, MA, USA) on setting “5”. The TT1 bag was rotated 180° and steps 2-a were repeated. The sample was transferred into a pre-weighed/labeled tube and maintained on dry ice until all samples were prepared. Sample weights were recorded. RIPA lysis buffer was prepared (R0278-500ML, Sigma, MO, USA). For 10 ml, two Roche PhosSTOP phosphatase inhibitor tablets and one Roche EDTA-free protease inhibitor tablet were added. To the cryofractured material, 8 μl per mg of RIPA buffer were added to each tube and each tube was vortexed until the lysate was homogeneous. Lysates were maintained on ice until all samples were processed. The lysate was cleared by centrifugation at 13,000 g for 5 minutes at 4° C. The supernatant was transferred to a new tube and snap frozen in liquid nitrogen (setting aside […] for protein assay). To measure the protein content of each sample, a Bradford DC protein assay (5000112, Bio-Rad, CA, USA) was conducted. Samples were diluted 1:20 in PBS for protein assessment.
The homogenized trapezius muscle lysate was assessed using an internally developed Meso Scale Discovery (MSD) multiplexed phospho MK2/total MK2 immunoassay (Meso Scale Diagnostics, MD, USA). For each sample, 50 μL of muscle lysate, equal to 50 μg of protein, was loaded onto the MSD assay. Protein concentrations in muscle lysates were determined by a Bradford DC protein assay as described above. Samples were assessed in duplicate. Muscle samples were incubated on a pre-coated MSD plate overnight at 4° C. while on an orbital shaker (300 rpm) and assessed the following morning.

[4] = system: DUX4 dependent target genes; experiment: Predicted reduction of DUX4 dependent target genes in FSHD patient muscle; set-up: species or system human; details: from rat muscle concentrations and in vitro FSHD myotube data
Description: P38 system target engagement persisted for at least 12 hours following the single dose of FTX-1821 (FIG. 15). P38 system target engagement in trapezius muscle was maximal when plasma and muscle concentrations of FTX-1821 were greater than 20 ng.mL or ng.g and declined at timepoints when exposures decreased. The muscle concentrations of FTX-1821 achieved in the rat study are predicted to result in >70% reduction at Cmax in DUX4 dependent target genes in FSHD patient muscle biopsies based upon in vitro data in FSHD myotubes (above).

DUX4 target genes = experiment: RNA-seq profiling of FSHD myotubes; assay type: cell-based, human; details: 1 μM
Text: The 40 bp single-end reads from Illumina had good quality by checking with FastQC (http://www.bioinformatics.babraham.ac.uk/projects/fastqc/). Reads were mapped to hg19 using TopHat v2.1.1 (Kim et al., 2013) with options as “solexa1.3-quals” mode and “no-novel-juncs.” The gene model for TopHat was created by merging known gene in gtf format with kgXref table. Both known gene and kgXref were downloaded from UCSC table browser in hg19 assembly. The read counts were obtained using featureCounts function from Subread package with strandness option as −r 2. Reads were normalized with DESeq2 (Love et al., 2014).
The 40 bp single-end reads from Illumina had good quality by checking with FastQC (http://www.bioinformatics.babraham.ac.uk/projects/fastqc/). Reads were mapped to hg19 using TopHat v2.1.1. The gene model for TopHat was created by merging knownGene in gtf format with kgXref table. Both known gene and kgXref were downloaded from UCSC table browser in hg19 assembly. The read counts were obtained using feature Counts function from Subread package with strandness option as -r 2. Reads were normalized with DESeq2. […] Calculated standard RPKM expression values. […]
In addition, gene expression was also determined in wild type myotubes treated with DMSO. Three replicates for each condition were analyzed by RNA-seq and genes were clustered by the direction and intensity of change.

[5] = rat, single oral dose 0.3 mg/kg

Structure (SMILES): Cc1c(F)cc(C(=O)NC2CC2)cc1-c1ccc(C(=O)NCC(C)(C)C)cn1 [FTX-1821]
- MBD3L2 mRNA in FSHD1 and FSHD2 primary patient myoblast lines ([1]; to levels similar to healthy control lines): reduction
- MBD3L2 expression levels in four FSHD patient lines ([1]; FTCE-016, -020, -197, -196 myotubes, to levels similar to healthy controls): reduced
- Muscle to plasma exposure ratios [2]: ≥ 1
- plasma concentration at maximal inhibition of the p38 system in muscle ([3]; rat): greater than 20 ng/mL
- plasma and muscle concentrations at maximal p38 system target engagement ([3]; rat trapezius muscle): greater than 20 ng.mL or ng.g
- time to significant decrease of phospho MK2 to total MK2 ratio ([3]; rat trapezius, single oral dose 0.3 mg/kg): ≤ 1 h
- persistence of p38 system target engagement [3, 5]: at least 12 hours
- phospho MK2 to total MK2 ratio in trapezius muscle [3, 5]: significantly decreased
- predicted reduction at Cmax in DUX4 dependent target genes in FSHD patient muscle biopsies [4]: > 70%
- non-DUX4-regulated genes in total signature (DUX4 target genes; moderate fold changes): 9/86
- expression of differentially expressed (DUX4 pathway) genes by RNA-seq (DUX4 target genes; vs DMSO and wild type): normalized
